Measurements: PMC9133015 (Nature Communications, 2022)
Several values for one entry are separate records, joined by “and”; a condition that tells them apart may be missing. Equal values may be shown once.

Columns and labels:
Assay type in all cases: cell-based, human
DU145 cells [1] = experiment: Anti-proliferation activity assay (CCK8, 72 h); settings: for Relative proliferation rate (%) mean / Relative proliferation rate (%) / optical density: DU145; for Relative proliferation rate (%) / optical density: replicates
PC-3 cells [2] = experiment: Anti-proliferation activity assay (CCK8, 72 h); settings: for Relative proliferation rate (%) mean / Relative proliferation rate (%) / optical density: PC-3; for Relative proliferation rate (%) / optical density: replicates
22Rv1 cells [3] = experiment: Anti-proliferation activity assay (CCK8, 72 h); settings: for Relative proliferation rate (%) mean / Relative proliferation rate (%) / optical density: 22Rv1; for Relative proliferation rate (%) / optical density: replicates
22Rv1 cells [4] = experiment: Migration assay (transwell); settings: for Cell migration (cell number): replicates
DU145 cells [5] = experiment: Migration assay (transwell); settings: for Cell migration (cell number): replicates
PC-3 cells [6] = experiment: Migration assay (transwell); settings: for Cell migration (cell number): PC-3, replicates

CCN1CCN(C(=O)c2ccc(Nc3ncc(F)c(-c4ccc5nc(N(C)C)sc5c4)n3)nc2)CC1 [YK-2-69]
Relative proliferation rate (%) mean (DU145 cells [1]; 0.0049 uM): 5.845%
Relative proliferation rate (%) (DU145 cells [1]; 0.0049 uM): 5.804% and 4.647% and 7.084%
optical density (DU145 cells [1]; 0.0049 uM): 0.99 and 0.985 and 1.01
Relative proliferation rate (%) mean (DU145 cells [1]; 0.078 uM): 13.2988%
Relative proliferation rate (%) (DU145 cells [1]; 0.078 uM): 13.2255% and 9.1% and 17.5713%
optical density (DU145 cells [1]; 0.078 uM): 0.912 and 0.939 and 0.896
Relative proliferation rate (%) mean (DU145 cells [1]; 0.3125 uM): 23.3091%
Relative proliferation rate (%) (DU145 cells [1]; 0.3125 uM): 23.3111% and 19.8451% and 26.7709%
optical density (DU145 cells [1]; 0.3125 uM): 0.806 and 0.828 and 0.796
Relative proliferation rate (%) mean (DU145 cells [1]; 1.25 uM): 41.9044%
Relative proliferation rate (%) (DU145 cells [1]; 1.25 uM): 41.8649% and 39.6902% and 44.1582%
optical density (DU145 cells [1]; 1.25 uM): 0.611 and 0.623 and 0.607
Relative proliferation rate (%) mean (DU145 cells [1]; 5 uM): 55.1717%
Relative proliferation rate (%) (DU145 cells [1]; 5 uM): 55.1855% and 52.3717% and 57.9577%
optical density (DU145 cells [1]; 5 uM): 0.471 and 0.492 and 0.457
Relative proliferation rate (%) mean (DU145 cells [1]; 20 uM): 69.2763%
Relative proliferation rate (%) (DU145 cells [1]; 20 uM): 69.3625% and 65.0532% and 73.4131%
optical density (DU145 cells [1]; 20 uM): 0.322 and 0.361 and 0.289
Relative proliferation rate (%) mean (DU145 cells [1]; 80 uM): 80.2708%
Relative proliferation rate (%) (DU145 cells [1]; 80 uM): 80.3045% and 75.4114% and 85.0966%
optical density (DU145 cells [1]; 80 uM): 0.207 and 0.254 and 0.162
inhibitory activity against proliferation (in words) (DU145 cells [1]; DU145 cells): potent inhibitory activity
IC50 (DU145 cells [1]; Homo sapiens, DU-145, read-out: IC50 against proliferation): 3.3 µM
IC50 (PC-3 cells [2]; Homo sapiens, PC-3, read-out: IC50 against proliferation): 1070 nM
Relative proliferation rate (%) mean (PC-3 cells [2]; 0.0049 uM): 6.648%
Relative proliferation rate (%) (PC-3 cells [2]; 0.0049 uM): 6.621% and 4.33% and 8.993%
optical density (PC-3 cells [2]; 0.0049 uM): 0.945 and 0.95 and 0.931
Relative proliferation rate (%) mean (PC-3 cells [2]; 0.078 uM): 18.3188%
Relative proliferation rate (%) (PC-3 cells [2]; 0.078 uM): 15.5138% and 18.3283% and 21.1144%
optical density (PC-3 cells [2]; 0.078 uM): 0.855 and 0.811 and 0.807
Relative proliferation rate (%) mean (PC-3 cells [2]; 0.3125 uM): 33.3383%
Relative proliferation rate (%) (PC-3 cells [2]; 0.3125 uM): 28.6561% and 33.3333% and 38.0254%
optical density (PC-3 cells [2]; 0.3125 uM): 0.722 and 0.662 and 0.634
Relative proliferation rate (%) mean (PC-3 cells [2]; 1.25 uM): 54.3687%
Relative proliferation rate (%) (PC-3 cells [2]; 1.25 uM): 47.8261% and 54.3807% and 60.8993%
optical density (PC-3 cells [2]; 1.25 uM): 0.528 and 0.453 and 0.4
Relative proliferation rate (%) mean (PC-3 cells [2]; 5 uM): 70.2315%
Relative proliferation rate (%) (PC-3 cells [2]; 5 uM): 66.7984% and 70.1913% and 73.7048%
optical density (PC-3 cells [2]; 5 uM): 0.336 and 0.296 and 0.269
Relative proliferation rate (%) mean (PC-3 cells [2]; 20 uM): 81.0679%
Relative proliferation rate (%) (PC-3 cells [2]; 20 uM): 78.6561% and 81.0675% and 83.48%
optical density (PC-3 cells [2]; 20 uM): 0.216 and 0.188 and 0.169
Relative proliferation rate (%) mean (PC-3 cells [2]; 80 uM): 88.776%
Relative proliferation rate (%) (PC-3 cells [2]; 80 uM): 88.7352% and 82.578% and 95.0147%
optical density (PC-3 cells [2]; 80 uM): 0.114 and 0.173 and 0.051
inhibitory activity against proliferation (in words) (PC-3 cells [2]; PC-3 cells): potent inhibitory activity
Relative proliferation rate (%) mean (22Rv1 cells [3]; 0.0049 uM): 8.6252%
Relative proliferation rate (%) (22Rv1 cells [3]; 0.0049 uM): 6.856% and 10.4024% and 8.617%
optical density (22Rv1 cells [3]; 0.0049 uM): 0.951 and 0.913 and 0.912
Relative proliferation rate (%) mean (22Rv1 cells [3]; 0.078 uM): 28.6346%
Relative proliferation rate (%) (22Rv1 cells [3]; 0.078 uM): 32.9089% and 24.3376% and 28.6573%
optical density (22Rv1 cells [3]; 0.078 uM): 0.685 and 0.771 and 0.712
Relative proliferation rate (%) mean (22Rv1 cells [3]; 0.3125 uM): 33.639%
Relative proliferation rate (%) (22Rv1 cells [3]; 0.3125 uM): 36.3369% and 30.9127% and 33.6673%
optical density (22Rv1 cells [3]; 0.3125 uM): 0.65 and 0.704 and 0.662
Relative proliferation rate (%) mean (22Rv1 cells [3]; 1.25 uM): 55.2648%
Relative proliferation rate (%) (22Rv1 cells [3]; 1.25 uM): 58.57% and 51.9136% and 55.3106%
optical density (22Rv1 cells [3]; 1.25 uM): 0.423 and 0.49 and 0.446
Relative proliferation rate (%) mean (22Rv1 cells [3]; 5 uM): 68.233%
Relative proliferation rate (%) (22Rv1 cells [3]; 5 uM): 72.38% and 64.0824% and 68.2365%
optical density (22Rv1 cells [3]; 5 uM): 0.282 and 0.366 and 0.317
Relative proliferation rate (%) mean (22Rv1 cells [3]; 20 uM): 73.6982%
Relative proliferation rate (%) (22Rv1 cells [3]; 20 uM): 76.5916% and 70.7556% and 73.7475%
optical density (22Rv1 cells [3]; 20 uM): 0.239 and 0.298 and 0.262
Relative proliferation rate (%) mean (22Rv1 cells [3]; 80 uM): 89.3325%
Relative proliferation rate (%) (22Rv1 cells [3]; 80 uM): 93.7316% and 84.8871% and 89.3788%
optical density (22Rv1 cells [3]; 80 uM): 0.064 and 0.154 and 0.106
inhibitory activity against proliferation (in words) (22Rv1 cells [3]; 22Rv1 cells): potent inhibitory activity
Cell migration (cell number) (22Rv1 cells [4]; 22Rv1, 0.5 μM): 1803 cell number and 1758 cell number and 1920 cell number
Cell migration (cell number) (22Rv1 cells [4]; 22Rv1, 1 μM): 710 cell number and 690 cell number and 736 cell number
Cell migration (cell number) (22Rv1 cells [4]; 22Rv1, 2 μM): 422 cell number and 380 cell number and 416 cell number
migration (in words) (22Rv1 cells [4]; 22Rv1 cells, dose-dependent): remarkably inhibited the migration and invasion
Cell migration (cell number) (DU145 cells [5]; DU145, 2 μM): 3879 cell number and 3920 cell number and 3723 cell number
Cell migration (cell number) (DU145 cells [5]; DU145, 4 μM): 2567 cell number and 2678 cell number and 2788 cell number
Cell migration (cell number) (DU145 cells [5]; DU145, 8 μM): 1578 cell number and 1677 cell number and 1723 cell number
migration (in words) (DU145 cells [5]; DU145 cells, dose-dependent): remarkably inhibited the migration and invasion
Cell migration (cell number) (PC-3 cells [6]; 1 µM): 189 cell number and 176 cell number and 199 cell number
Cell migration (cell number) (PC-3 cells [6]; 2 µM): 110 cell number and 105 cell number and 98 cell number
Cell migration (cell number) (PC-3 cells [6]; 4 µM): 69 cell number and 65 cell number and 74 cell number
migration (in words) (PC-3 cells [6]; PC-3 cells, dose-dependent): remarkably inhibited the migration and invasion
